US20150238444A1, “CHLORHEXIDINE GLUCONATE SOLUBILIZED IN A HYDROPHOBIC MONOACYLGLYCERIDE” (3M INNOVATIVE PROPERTIES COMPANY, priority 2012, published 2015)

Test: Screening of CHG solubility in hydrophobic vehicles after vacuum-stripping water
Assay type: physicochemical
Protocol: General Method for Vacuum-Stripping Water from CHG Solutions. A 25 g sample of CHG/water solution (20 wt. CHG) was added to 45 g of the hydrophobic monoacylglyceride of interest in a 200 mL round bottom flask. The flask was put in a 60° C. oil bath and stirred with a magnetic stir bar. Vacuum (less than 3.3 kilopascal (25 Torr)) was pulled until bubbling stopped and the weight had closely approached the theoretical value of 50 grams—usually 30-90 minutes. […] In those cases, after nearly all the water was removed, additional hydrophobic monoacylglyceride was added to bring the final weight to 50 grams.
Screening tests were conducted to determine the solubility of CHG in a variety of hydrophobic vehicles. Samples were prepared by mixing CHG (20 wt. % solution in water, obtained from Xttrium Laboratories Inc., Chicago, Ill.) with the vehicle and vacuum stripping in accordance with the General Method for Vacuum-Stripping Water from CHG Solutions. The resulting concentration of CHG and residual water were determined. Also, the final state of the solution was qualitatively evaluated to determine whether the mixture was transparent and apparently homogenous, or clearly inhomogeneous.

[1] = after vacuum stripping of water from CHG/vehicle mixture

Row | Molecule | Experimental Solubility with CHG | Water wt. % (residual water) [1] [% wt. %] | Final State (CHG 10 wt. %, 23-60° C.) | also measured
1 | CCCCCCCC(=O)OCC(O)CO (stereo not drawn) [Glyceryl monocaprylate] | Yes | – | – | Final State (CHG 20 wt. %, 23-60° C.): Homogeneous
2 | CCCCCCCCCCCC(=O)OCC(O)CO (stereo not drawn) [Glyceryl monolaurate] | Yes | 0.7 | – | Final State (CHG 20 wt. %, 75° C.): Homogeneous
3 | CCCCCCCCCCCCCCCCCC(=O)OCC(O)CO (stereo not drawn) [Glyceryl monostearate] | Yes | 0.2 | – | Final State (CHG 10 wt. %, 80° C.): Homogeneous
4 | CC(C)CCCCCCCCCCCCCCC(=O)OCC(O)CO (stereo not drawn) [Glyceryl monoisostearate] | Yes | – | Homogeneous | Final State (CHG 16 wt. %, 23-60° C.): Homogeneous; Final State (CHG 20 wt. %, 60° C.): Homogeneous
5 | CCCCCCCC/C=C\CCCCCCCC(=O)OCC(O)CO (stereo not drawn) [Glyceryl monooleate] | Yes | 0.3 | Homogeneous | –
6 | Trigyceryl diisostearate | No | – | Inhomogeneous | Final State (CHG 1 wt. %, 23-60° C.): Inhomogeneous
7 | Polyglycerol-2-Triisostearate | No | – | Inhomogeneous | CHG wt. % (resulting concentration of CHG in the vehicle) [1]: 10% wt. %
